The values below come from article PMC5765548 (Journal of medicinal chemistry, 2017).

For assay [1], the target named is T1, ALDH2 (Homo sapiens, UniProt P05091).
T1 sequence (P05091 18-517): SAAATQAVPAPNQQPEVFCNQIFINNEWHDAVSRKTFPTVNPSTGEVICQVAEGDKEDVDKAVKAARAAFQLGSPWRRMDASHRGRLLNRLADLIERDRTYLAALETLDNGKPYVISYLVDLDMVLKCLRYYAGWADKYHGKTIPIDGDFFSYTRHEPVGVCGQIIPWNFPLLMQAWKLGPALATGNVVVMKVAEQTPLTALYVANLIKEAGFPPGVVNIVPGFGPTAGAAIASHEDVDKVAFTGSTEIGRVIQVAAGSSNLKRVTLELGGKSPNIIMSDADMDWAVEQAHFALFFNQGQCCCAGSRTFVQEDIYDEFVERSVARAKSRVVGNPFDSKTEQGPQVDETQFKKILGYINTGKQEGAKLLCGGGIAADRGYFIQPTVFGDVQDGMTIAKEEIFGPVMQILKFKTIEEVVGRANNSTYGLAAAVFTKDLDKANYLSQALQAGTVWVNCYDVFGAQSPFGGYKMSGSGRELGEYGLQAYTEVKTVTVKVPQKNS
The settings on record: 1 mM propionaldehyde.

The target in assay [2] is T2, ALDH1A3 (Homo sapiens, UniProt P47895).
T2 sequence (P47895 1-512): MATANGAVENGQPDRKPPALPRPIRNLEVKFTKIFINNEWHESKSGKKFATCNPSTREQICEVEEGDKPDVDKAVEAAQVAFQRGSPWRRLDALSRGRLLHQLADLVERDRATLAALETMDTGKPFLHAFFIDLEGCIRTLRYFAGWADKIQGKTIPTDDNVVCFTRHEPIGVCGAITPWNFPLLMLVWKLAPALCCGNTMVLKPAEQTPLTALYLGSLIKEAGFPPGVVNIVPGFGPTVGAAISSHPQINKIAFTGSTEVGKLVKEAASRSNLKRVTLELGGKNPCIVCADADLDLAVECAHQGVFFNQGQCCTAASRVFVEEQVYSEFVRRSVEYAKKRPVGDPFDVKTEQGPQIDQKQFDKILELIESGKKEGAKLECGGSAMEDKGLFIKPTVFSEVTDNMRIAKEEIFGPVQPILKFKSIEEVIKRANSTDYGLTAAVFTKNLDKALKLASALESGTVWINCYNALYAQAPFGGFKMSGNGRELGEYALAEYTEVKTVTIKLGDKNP
The settings on record: read-out: IC50 ALDH1A3; 100 μM propionaldehyde, 200 μM NAD+, 1% DMSO, pH 7.5, 25 °C.

For assay [3], the target named is T3, ALDH3A1 (Homo sapiens, UniProt P30838).
T3 sequence (P30838 1-453): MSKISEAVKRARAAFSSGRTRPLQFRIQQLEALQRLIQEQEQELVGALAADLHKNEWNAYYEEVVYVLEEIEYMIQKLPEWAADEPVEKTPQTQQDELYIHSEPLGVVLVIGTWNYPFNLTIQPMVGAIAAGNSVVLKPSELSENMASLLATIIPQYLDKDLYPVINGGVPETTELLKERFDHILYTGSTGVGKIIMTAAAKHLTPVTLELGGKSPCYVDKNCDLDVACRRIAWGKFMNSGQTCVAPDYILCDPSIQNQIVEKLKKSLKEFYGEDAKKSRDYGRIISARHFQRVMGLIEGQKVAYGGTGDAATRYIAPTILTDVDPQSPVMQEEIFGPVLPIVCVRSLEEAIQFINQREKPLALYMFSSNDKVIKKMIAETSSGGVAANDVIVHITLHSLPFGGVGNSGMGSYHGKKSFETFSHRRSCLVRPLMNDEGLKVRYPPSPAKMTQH
Description: ALDH3A1 dehydrogenase activity. In kind it is biochemical. The conditions noted are these: read-out: IC50 ALDH3A1; 300 μM benzaldehyde, 300 μM NADP+, pH 7.5.

As usually defined, the IC50 is the concentration that gives 50% inhibition.

Regarding `COC(=O)C(C)Oc1ccc2c(C)cc(=O)oc2c1` (stereo not drawn) [Compound 4], the “Mode of inhibition of ALDH2 versus varied NAD+” value in assay [1] was “competitive”. The IC50 in assay [2] and in assay [3] was above 100 µM each time.
